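At the GI50, growth is halved. TGI is the concentration that stops growth completely.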
What was measured:
Test in all cases: NCI tumour cell line growth inhibition, 384-well format
UO-31 renal = tested on: UO-31 renal
SNB-19 CNS = tested on: SNB-19 CNS
SF-268 CNS = tested on: SF-268 CNS
OVCAR-3 ovarian = tested on: OVCAR-3 ovarian
CAKI-1 renal = tested on: CAKI-1 renal
HCT-15 colon = tested on: HCT-15 colon
SK-OV-3 ovarian = tested on: SK-OV-3 ovarian
RPMI-8226 leukemia = tested on: RPMI-8226 leukemia
PC-3 prostate = tested on: PC-3 prostate
HT29 colon = tested on: HT29 colon
EKVX NSCLC = tested on: EKVX NSCLC
MDA-MB-231 breast = tested on: MDA-MB-231 breast
COLO 205 colon = tested on: COLO 205 colon
CCRF-CEM leukemia = tested on: CCRF-CEM leukemia
MOLT-4 leukemia = tested on: MOLT-4 leukemia
MDA-MB-435 melanoma = tested on: MDA-MB-435 melanoma
NCI/ADR-RES ovarian = tested on: NCI/ADR-RES ovarian
SF-295 CNS = tested on: SF-295 CNS
UACC-257 melanoma = tested on: UACC-257 melanoma
SK-MEL-28 melanoma = tested on: SK-MEL-28 melanoma
UACC-62 melanoma = tested on: UACC-62 melanoma
MDA-MB-468 breast = tested on: MDA-MB-468 breast
NCI-H460 NSCLC = tested on: NCI-H460 NSCLC
HCC-2998 colon = tested on: HCC-2998 colon
OVCAR-4 ovarian = tested on: OVCAR-4 ovarian
KM12 colon = tested on: KM12 colon
NCI-H322M lung = tested on: NCI-H322M lung
SF-539 CNS = tested on: SF-539 CNS
HOP-62 NSCLC = tested on: HOP-62 NSCLC
ACHN renal = tested on: ACHN renal
LOX IMVI melanoma = tested on: LOX IMVI melanoma
OVCAR-8 ovarian = tested on: OVCAR-8 ovarian
786-0 renal = tested on: 786-0 renal
A498 renal = tested on: A498 renal
MCF7 breast = tested on: MCF7 breast
IGROV1 ovarian = tested on: IGROV1 ovarian
SR leukemia = tested on: SR leukemia
HCT-116 colon = tested on: HCT-116 colon
TK-10 renal = tested on: TK-10 renal
HL-60(TB) leukemia = tested on: HL-60(TB) leukemia
RXF 393 renal = tested on: RXF 393 renal
NCI-H522 lung = tested on: NCI-H522 lung
SW-620 colon = tested on: SW-620 colon
HOP-92 NSCLC = tested on: HOP-92 NSCLC
MALME-3M melanoma = tested on: MALME-3M melanoma
NCI-H226 lung = tested on: NCI-H226 lung
M14 melanoma = tested on: M14 melanoma
SNB-75 CNS = tested on: SNB-75 CNS
K-562 leukemia = tested on: K-562 leukemia
SK-MEL-5 melanoma = tested on: SK-MEL-5 melanoma
HS 578T breast = tested on: HS 578T breast
DU-145 prostate = tested on: DU-145 prostate
NCI-H23 lung = tested on: NCI-H23 lung
BT-549 breast = tested on: BT-549 breast
T-47D breast = tested on: T-47D breast
U251 glioblastoma = tested on: U251 glioblastoma
SN12C renal = tested on: SN12C renal
A549 NSCLC = tested on: A549 NSCLC

SMILES: CN(C)CCCOc1ccc(-c2ccc3ncc4c(c3c2)n(C2CCOCC2)c(=O)n4C)cn1
- GI50 (UO-31 renal): 4.78 µM
- TGI (UO-31 renal): > 100 µM
- GI50 (SNB-19 CNS): 22.9 µM
- TGI (SNB-19 CNS): > 100 µM
- GI50 (SF-268 CNS): 4.23 µM
- TGI (SF-268 CNS): > 100 µM
- GI50 (OVCAR-3 ovarian): 1690 nM
- TGI (OVCAR-3 ovarian): 4.86 µM
- GI50 (CAKI-1 renal): 1450 nM
- TGI (CAKI-1 renal): 6.38 µM
- GI50 (HCT-15 colon): 5.01 µM
- TGI (HCT-15 colon): > 100 µM
- GI50 (SK-OV-3 ovarian): 2450 nM
- TGI (SK-OV-3 ovarian): 71.9 µM
- GI50 (RPMI-8226 leukemia): 738 nM
- TGI (RPMI-8226 leukemia): 2390 nM
- GI50 (PC-3 prostate): 1730 nM
- TGI (PC-3 prostate): 12 µM
- GI50 (HT29 colon): 4.36 µM
- TGI (HT29 colon): 27.8 µM
- GI50 (EKVX NSCLC): 2390 nM
- TGI (EKVX NSCLC): > 100 µM
- GI50 (MDA-MB-231 breast): 2080 nM
- TGI (MDA-MB-231 breast): > 100 µM
- GI50 (COLO 205 colon): 2170 nM
- TGI (COLO 205 colon): 13.5 µM
- GI50 (CCRF-CEM leukemia): 1950 nM
- TGI (CCRF-CEM leukemia): 10 µM
- GI50 (MOLT-4 leukemia): 1390 nM
- TGI (MOLT-4 leukemia): 4.71 µM
- GI50 (MDA-MB-435 melanoma): 6.28 µM
- TGI (MDA-MB-435 melanoma): > 100 µM
- GI50 (NCI/ADR-RES ovarian): > 100 µM
- TGI (NCI/ADR-RES ovarian): > 100 µM
- GI50 (SF-295 CNS): 2950 nM
- TGI (SF-295 CNS): > 100 µM
- GI50 (UACC-257 melanoma): > 100 µM
- TGI (UACC-257 melanoma): > 100 µM
- GI50 (SK-MEL-28 melanoma): 5.73 µM
- TGI (SK-MEL-28 melanoma): > 100 µM
- GI50 (UACC-62 melanoma): 4.33 µM
- TGI (UACC-62 melanoma): 23.3 µM
- GI50 (MDA-MB-468 breast): 2470 nM
- TGI (MDA-MB-468 breast): 19.9 µM
- GI50 (NCI-H460 NSCLC): 1500 nM
- TGI (NCI-H460 NSCLC): 96.2 µM
- GI50 (HCC-2998 colon): 3.12 µM
- TGI (HCC-2998 colon): > 100 µM
- GI50 (OVCAR-4 ovarian): 7.94 µM
- TGI (OVCAR-4 ovarian): > 100 µM
- GI50 (KM12 colon): 2670 nM
- TGI (KM12 colon): 26 µM
- GI50 (NCI-H322M lung): 3.21 µM
- TGI (NCI-H322M lung): 36.7 µM
- GI50 (SF-539 CNS): 3.85 µM
- TGI (SF-539 CNS): > 100 µM
- GI50 (HOP-62 NSCLC): 3.81 µM
- TGI (HOP-62 NSCLC): > 100 µM
- GI50 (ACHN renal): 5.21 µM
- TGI (ACHN renal): > 100 µM
- GI50 (LOX IMVI melanoma): 2450 nM
- TGI (LOX IMVI melanoma): 14.5 µM
- GI50 (OVCAR-8 ovarian): 5.22 µM
- TGI (OVCAR-8 ovarian): > 100 µM
- GI50 ([…]-0 renal): 5.99 µM
- TGI (786-0 renal): > 100 µM
- GI50 (A498 renal): 2540 nM
- TGI (A498 renal): > 100 µM
- GI50 (MCF7 breast): 1910 nM
- TGI (MCF7 breast): > 100 µM
- GI50 (IGROV1 ovarian): 1170 nM
- TGI (IGROV1 ovarian): 6.42 µM
- GI50 (SR leukemia): 172 nM
- TGI (SR leukemia): 445 nM
- GI50 (HCT-116 colon): 6.44 µM
- TGI (HCT-116 colon): 55.7 µM
- GI50 (TK-10 renal): 3 µM
- TGI (TK-10 renal): 49.5 µM
- GI50 (HL-60(TB) leukemia): 2950 nM
- TGI (HL-60(TB) leukemia): 11 µM
- GI50 (RXF 393 renal): 5.05 µM
- TGI (RXF 393 renal): > 100 µM
- GI50 (NCI-H522 lung): 3.48 µM
- TGI (NCI-H522 lung): > 100 µM
- GI50 (SW-620 colon): 4.91 µM
- TGI (SW-620 colon): > 100 µM
- GI50 (HOP-92 NSCLC): 3.45 µM
- TGI (HOP-92 NSCLC): 20.2 µM
- GI50 (MALME-3M melanoma): 1240 nM
- TGI (MALME-3M melanoma): 6.1 µM
- GI50 (NCI-H226 lung): 3.73 µM
- TGI (NCI-H226 lung): > 100 µM
- GI50 (M14 melanoma): 3.32 µM
- TGI (M14 melanoma): > 100 µM
- GI50 (SNB-75 CNS): 2760 nM
- TGI (SNB-75 CNS): > 100 µM
- GI50 (K-562 leukemia): 7.55 µM
- TGI (K-562 leukemia): 30.6 µM
- GI50 (SK-MEL-5 melanoma): 2230 nM
- TGI (SK-MEL-5 melanoma): > 100 µM
- GI50 (HS 578T breast): 1470 nM
- TGI (HS 578T breast): 4.14 µM
- GI50 (DU-145 prostate): 4.92 µM
- TGI (DU-145 prostate): > 100 µM
- GI50 (NCI-H23 lung): 8.22 µM
- TGI (NCI-H23 lung): > 100 µM
- GI50 (BT-549 breast): 3.56 µM
- TGI (BT-549 breast): 30 µM
- GI50 (T-47D breast): 1220 nM
- TGI (T-47D breast): 11.7 µM
- GI50 (U251 glioblastoma): > 100 µM
- TGI (U251 glioblastoma): > 100 µM
- GI50 (SN12C renal): 2320 nM
- TGI (SN12C renal): 32.8 µM
- GI50 (A549 NSCLC): 3.91 µM
- TGI (A549 NSCLC): > 100 µM

— PubChem BioAssay (NCI)
